Results taken from patent EP3201178B1 (University of Hertfordshire Higher Education Corporation, priority 2014, dated 2016).

What was measured:
SH-SY5Y cells = conditions: Tovilovic et al., 2012; cited from earlier work
dopamine D2 receptors = dopamine D2 receptors (Homo sapiens, UniProt P14416); test: binding affinity for the D2 DA receptor; conditions: for affinity for dopamine D2 receptors: result in words
[1] = test system: ventral mesencephalic neurones; test: calcein AM fluorescence viability assay against lactacystin; type: cell-based, rat; conditions: 5 µM lactacystin; for protection against lactacystin in calcein AM fluorescence assay: compound concentrations 0.1 to 1 µM; for neuroprotection against lactacystin in calcein AM fluorescence assay at higher concentrations: compound concentrations 10 to 100 µM; for viability of ventral mesencephalic neurones, calcein AM assay (Figure 6 legend): low to medium concentrations of compound
Excerpt: (§1) • Figure 1 illustrates Scheme 1, the synthetic route and chemical structures N-{4-[2-(4-aryl-piperazin-1-yl)-ethyl]-phenyl}-arylsulphonamides, N-{3-[2-(4-aryl-piperazin-1-yl)-ethyl]-phenyl}-arylsulphonamides and N-{2-[2-(4-aryl-piperazin-1-yl)-ethyl]-phenyl}-arylsulphonamides; • Figure 2 illustrates Scheme 2 the synthetic route and chemical structures of the N-{4-[2-(4-aryl-piperazin-1-yl)-methyl]-phenyl}-arylsulphonamides, N-{3-[2-(4-aryl-piperazin-1-yl)-methyl]-phenyl}-arylsulphonamides and N-{2-[2-(4-aryl-piperazin-1-yl)-methyl]-phenyl}-arylsulphonamides; • Figure 3 illustrates Table 1 illustrating the chemical structure and binding affinity of the some new arylpiperazine-sulphonamides for the D2 DA and 5-HT1A receptors; • Figure 4 illustrates the effect of compounds 1 and 2 on motor clinical scores; • Figure 5 illustrates the viability of rat ventral mesencephalic cells in culture following administration of proteasomal inhibitor lactacystin (5µM) using MTT assay. Compound 4h (4207) and 4f (4295) are protective against the effect of lactacystin in this model; and • Figure 6 illustrates the viability of ventral mesencephalic neurones using calcein AM assay.

[2] = test system: rat primary ventral mesencephalic neurones; test: MTT viability assay, lactacystin cytotoxicity on primary ventral mesencephalic neurones; type: cell-based; conditions: lactacystin 5µM, rat ventral mesencephalic cells in culture
Excerpt: as §1

5-HT1a receptors = molecular target: T1, 5-HT1a receptors (Homo sapiens, UniProt P08908); test: binding affinity for the 5-HT1A receptor
T1 sequence (P08908 1-422): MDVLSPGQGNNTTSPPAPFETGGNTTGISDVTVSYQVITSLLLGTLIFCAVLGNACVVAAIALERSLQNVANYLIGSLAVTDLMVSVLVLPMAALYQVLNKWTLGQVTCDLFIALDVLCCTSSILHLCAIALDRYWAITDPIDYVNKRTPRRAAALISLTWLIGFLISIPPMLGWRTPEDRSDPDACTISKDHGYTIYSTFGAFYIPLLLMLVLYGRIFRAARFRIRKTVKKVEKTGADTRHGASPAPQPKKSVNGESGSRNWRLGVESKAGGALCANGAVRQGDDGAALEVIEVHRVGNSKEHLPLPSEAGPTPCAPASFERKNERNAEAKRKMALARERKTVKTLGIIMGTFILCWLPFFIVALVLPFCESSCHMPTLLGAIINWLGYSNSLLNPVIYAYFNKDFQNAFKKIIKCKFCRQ

dopamine D2 receptors, sequence (P14416 whole entry): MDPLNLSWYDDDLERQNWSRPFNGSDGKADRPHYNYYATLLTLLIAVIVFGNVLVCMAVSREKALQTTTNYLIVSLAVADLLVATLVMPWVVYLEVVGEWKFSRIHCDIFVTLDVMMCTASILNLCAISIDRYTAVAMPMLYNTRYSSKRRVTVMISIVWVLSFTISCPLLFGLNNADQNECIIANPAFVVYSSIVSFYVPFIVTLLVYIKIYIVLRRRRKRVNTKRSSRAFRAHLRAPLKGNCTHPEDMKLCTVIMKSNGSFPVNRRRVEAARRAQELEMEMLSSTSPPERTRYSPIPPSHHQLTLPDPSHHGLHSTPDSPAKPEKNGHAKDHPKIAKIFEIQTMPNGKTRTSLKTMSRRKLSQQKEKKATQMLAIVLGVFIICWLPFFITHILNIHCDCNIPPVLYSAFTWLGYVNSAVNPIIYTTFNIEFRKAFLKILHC

| affinity for dopamine D2 receptors (dopamine D2 receptors) | Structure (SMILES) | preventing mitochondrial damage and apoptosis induced by nitric oxide (NO) (SH-SY5Y cells) | protection against lactacystin in calcein AM fluorescence assay [1] | neuroprotection against lactacystin in calcein AM fluorescence assay at higher concentrations [1] | viability of ventral mesencephalic neurones, calcein AM assay (Figure 6 legend) [1] | protection of dopaminergic neurons against lactacystin (cell viability, MTT assay) [2] | protection of dopaminergic neurons against lactacystin (cell viability, MTT assay) ([2]; hydrochloride) | other results |
| --- | --- | --- | --- | --- | --- | --- | --- | --- |
| moderate affinity | O=C(Nc1ccc(CCN2CCN(c3ccccc3)CC2)cc1)c1ccccn1 [Compound 1, N-{4-[2-(4-phenyl-piperazin-1-yl)ethyl]-phenyl}-picolinamide, reference compound] | most active | – | – | – | – | – | – |
| moderate affinity | O=C(Nc1cccc(CCN2CCN(c3ccccc3)CC2)c1)c1ccccn1 [Compound 2, N-{3-[2-(4-phenyl-piperazin-1-yl)ethyl]-phenyl}-picolinamide, reference compound] | most active | – | – | – | – | – | – |
| – | O=S(=O)(Nc1ccc(CCN2CCN(c3ccccc3)CC2)cc1)c1ccccn1 [Compound 4f, N-{4-[2-(4-phenyl-piperazin-1-yl)-ethyl]-phenyl}-2-pyridylsulphonamide] | – | afford protection | neuroprotection was reversed | reversed cell death | protective | – | protection of dopaminergic neurons against lactacystin (cell viability, MTT assay) ([2]; listed as 4295): markedly protected; Ki (dopamine D2 receptors): 4.43 nM |
| little or no affinity | Cl.O=S(=O)(Nc1cccc(CCN2CCN(c3ccccc3)CC2)c1)c1cccnc1 [Compound 4h, N-{3-[2-(4-phenyl-piperazin-1-yl)-ethyl]-phenyl}-3-pyridylsulphonamide hydrochloride] | – | afford protection | neuroprotection was reversed | reversed cell death | – | protective | protection of dopaminergic neurons against lactacystin (cell viability, MTT assay) ([2]; listed as 4207, hydrochloride): most protection; Ki (5-HT1a receptors): 6.88 nM |
| – | Cl.O=S(=O)(Nc1cccc(CCN2CCN(c3ccccc3)CC2)c1)c1cccnc1 [Compound 4208, N-{3-[2-(4-phenyl-piperazin-1-yl)-ethyl]-phenyl}-3-pyridylsulphonamide hydrochloride] | – | – | – | – | – | markedly protected | – |
| – | O=S(=O)(Nc1cccc(CCN2CCN(c3ccccc3)CC2)c1)c1ccccn1 [Compound 4298] | – | – | – | – | markedly protected | – | – |
